pKd: −log10 of the molar value.
Tests used:
[1] = target: T1, EGFR WT (amino acids 669-1011, Accession Number NP_005219.2) (Homo sapiens, UniProt P00533); assay: KdELECT binding assay (Eurofins Discovery), EGFR WT
T1 construct: purchased Eurofins Discovery; host or cells: bacteria (E. coli, BL21-derived, T7 phage)
Method: (§1) Exemplary compounds were tested for ability to bind to EGFR WT (amino acids 669-1011, Accession Number NP_005219.2) or EGFR T790M, L858R (amino acids 669-1011 Accession Number NP_005219.2) expressed from bacteria or mammalian cells, respectively. Compounds were tested using the KdELECT assay at Eurofins Discovery.
(§2) Kinase-tagged T7 phage strains were prepared in an E. coli host derived from the BL21 strain. E. coli were grown to log-phase and infected with T7 phage and incubated with shaking at 32° C. until lysis. The lysates were centrifuged and filtered to remove cell debris. The remaining kinases were produced in HEK-293 cells and subsequently tagged with DNA for qPCR detection. Streptavidin-coated magnetic beads were treated with biotinylated small molecule ligands for 30 minutes at room temperature to generate affinity resins for kinase assays. The liganded beads were blocked with excess biotin and washed with blocking buffer (SeaBlock (Pierce), 1% BSA, 0.05% Tween 20, 1 mM DTT) to remove unbound ligand and to reduce non-specific binding. Binding reactions were assembled by combining kinases, liganded affinity beads, and test compounds in 1× binding buffer (20% SeaBlock, 0.17×PBS, 0.05% Tween 20, 6 mM DTT). Test compounds were prepared as 111× stocks in 100% DMSO. Kd values were determined using an 11-point 3-fold compound dilution series with three DMSO control points. All compounds for Kd measurements are distributed by acoustic transfer (non-contact dispensing) in 100% DMSO. The compounds were then diluted directly into the assays such that the final concentration of DMSO was 0.9%. All reactions performed in polypropylene 384-well plate. Each was a final volume of 0.02 mL. The assay plates were incubated at room temperature with shaking for 1 hour and the affinity beads were washed with wash buffer (1× PBS, 0.05% Tween 20). The beads were then re-suspended in elution buffer (1× PBS, 0.05% Tween 20, 0.5 μM nonbiotinylated affinity ligand) and incubated at room temperature with shaking for 30 minutes. The kinase concentration in the eluates was measured by qPCR.

[2] = test system: HEK293 cells; assay: Cellular growth inhibition assay (CellTiter-Glo), HEK293 cells; format: cell-based; conditions: Homo sapiens, 72 h, three days compound treatment, CellTiter-Glo 2.0, read-out: CTG HEK293 GI50
How it was run: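 GI50 derived by four-parameter regression of luminescence (CellTiter-Glo 2.0) at Day 0 and Day 3, normalized to DMSO wells. Cells (HeLa, HEK293; 500/well, DMEM plus 10% FBS) were dosed with compound dilutions 24 h post-seeding and exposed for three days at 37 °C.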

[3] = target: T2, EGFR (Homo sapiens, UniProt P00533); assay: KdELECT binding assay, EGFR
T2 construct: purchased
How it was run: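 Competition binding: DNA- or T7 phage-tagged EGFR was incubated 1 h at room temperature with immobilized ligand beads and an 11-point 3-fold compound series (0.9% DMSO final). Bead-bound kinase was eluted and quantified by qPCR to derive Kd.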

[4] = test system: HeLa cells; assay: Cellular growth inhibition assay (CellTiter-Glo), HeLa cells; format: cell-based; conditions: Homo sapiens, 72 h, three days compound treatment, CellTiter-Glo 2.0, read-out: CTG HELA GI50
Method: Exemplary compounds were tested for ability to inhibit the proliferation of HEK293 cells or HeLa cells.
HEK293 and HeLa cells were cultured in DMEM medium supplemented with 10% fetal bovine serum and 1% Penn/Strep. Cells were seeded in white 384-well plates at 500 cells/well in […] complete medium. Following seeding, plates were spun at 300×g for three minutes and cultured at 37° C. with 5% CO2 in a humidified tissue culture incubator.
After 24 hours, compounds were titrated in 100% DMSO and diluted in complete cell culture medium. […] of compound/media mixture was added to cells to bring total volume in well to […]. DMSO alone was used as a negative control. P lates were then spun at 300×g for three minutes and stored at 37° C. with 5% CO2 for three days.
On Day 0 and Day 3 of compound treatment, cell viability was quantified with CellTiter-Glo 2.0 reagent (Promega). After equilibrating microplates at room temperature for 30 minutes, 25 μL CellTiter-Glo 2.0 reagent was dispensed into each well to bring total volume to […]. Plates were mixed on shaker for 2 minutes at 500 rpm, followed by a 10-minute incubation at room temperature. Following a quick spin, luminescence readings were measured with an EnVision Plate Reader. Data was normalized to DMSO treated Day 0 and Day 3 readings. A four-parameter non-linear regression curve fit was applied to dose-response data in GraphPad Prism data analysis software to determine the half maximal growth inhibitory concentration (GI50) for each compound.

[5] = target: T3, EGFR T790M, L858R (amino acids 669-1011 Accession Number NP_005219.2) (Homo sapiens, UniProt P00533, L858R/T790M); assay: KdELECT binding assay (Eurofins Discovery), EGFR T790M, L858R; conditions: read-out: EGFR DM Kd
T3 construct: purchased Eurofins Discovery; host or cells: mammalian cells (HEK-293)
Method: as §1, §2

T3 sequence (P00533 669-1011 T790M/L858R): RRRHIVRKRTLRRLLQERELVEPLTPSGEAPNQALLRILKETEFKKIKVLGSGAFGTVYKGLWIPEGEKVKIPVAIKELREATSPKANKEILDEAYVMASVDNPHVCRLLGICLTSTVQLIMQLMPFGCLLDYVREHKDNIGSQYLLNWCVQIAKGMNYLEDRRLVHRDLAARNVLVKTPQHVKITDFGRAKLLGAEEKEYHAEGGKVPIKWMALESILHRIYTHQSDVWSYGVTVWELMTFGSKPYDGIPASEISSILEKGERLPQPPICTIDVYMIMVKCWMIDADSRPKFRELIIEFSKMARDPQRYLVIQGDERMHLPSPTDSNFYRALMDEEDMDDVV
T1 sequence (P00533 669-1011): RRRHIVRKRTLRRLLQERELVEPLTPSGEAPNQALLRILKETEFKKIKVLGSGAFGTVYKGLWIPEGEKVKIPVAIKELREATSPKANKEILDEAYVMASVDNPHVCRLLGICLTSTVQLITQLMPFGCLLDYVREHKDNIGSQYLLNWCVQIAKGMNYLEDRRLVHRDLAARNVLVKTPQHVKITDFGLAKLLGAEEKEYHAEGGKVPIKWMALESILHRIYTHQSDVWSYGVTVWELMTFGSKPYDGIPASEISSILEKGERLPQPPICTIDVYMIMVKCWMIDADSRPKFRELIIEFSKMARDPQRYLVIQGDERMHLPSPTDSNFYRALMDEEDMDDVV
T2 sequence (P00533 25-1210): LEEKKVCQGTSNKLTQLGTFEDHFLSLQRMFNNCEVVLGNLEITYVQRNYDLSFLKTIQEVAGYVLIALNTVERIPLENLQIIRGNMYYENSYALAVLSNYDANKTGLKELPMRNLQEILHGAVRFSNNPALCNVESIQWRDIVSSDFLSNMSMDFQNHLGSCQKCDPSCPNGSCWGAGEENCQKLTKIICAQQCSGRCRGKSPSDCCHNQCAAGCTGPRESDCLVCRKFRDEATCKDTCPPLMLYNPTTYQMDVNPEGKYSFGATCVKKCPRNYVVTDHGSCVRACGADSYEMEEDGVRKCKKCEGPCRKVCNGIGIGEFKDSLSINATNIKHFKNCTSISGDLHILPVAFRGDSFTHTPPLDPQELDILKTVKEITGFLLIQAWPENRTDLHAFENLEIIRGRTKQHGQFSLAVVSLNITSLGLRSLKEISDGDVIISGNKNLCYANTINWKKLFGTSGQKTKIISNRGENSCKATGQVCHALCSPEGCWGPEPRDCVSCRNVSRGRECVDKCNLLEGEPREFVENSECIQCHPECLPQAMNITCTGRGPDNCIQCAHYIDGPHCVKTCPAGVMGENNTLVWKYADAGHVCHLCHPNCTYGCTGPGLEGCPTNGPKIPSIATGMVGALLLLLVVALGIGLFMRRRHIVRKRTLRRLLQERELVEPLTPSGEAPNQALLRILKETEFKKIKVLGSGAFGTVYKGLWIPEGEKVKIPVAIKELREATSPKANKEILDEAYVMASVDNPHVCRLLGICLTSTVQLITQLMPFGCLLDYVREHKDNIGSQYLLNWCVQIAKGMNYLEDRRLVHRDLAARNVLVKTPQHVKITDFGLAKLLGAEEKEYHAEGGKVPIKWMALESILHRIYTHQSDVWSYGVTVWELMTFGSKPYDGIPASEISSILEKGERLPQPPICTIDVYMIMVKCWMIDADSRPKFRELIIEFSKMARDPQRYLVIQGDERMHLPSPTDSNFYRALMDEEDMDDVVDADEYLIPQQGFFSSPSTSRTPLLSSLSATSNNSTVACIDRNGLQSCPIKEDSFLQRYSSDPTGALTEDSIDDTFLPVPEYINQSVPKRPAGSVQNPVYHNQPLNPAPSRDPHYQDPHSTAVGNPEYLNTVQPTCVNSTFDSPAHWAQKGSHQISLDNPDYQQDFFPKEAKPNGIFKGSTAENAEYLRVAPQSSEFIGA

pKd [1]	pKd [3]	GI50 [4]	pKd [5]	Compound	GI50 [2]
5.60 to 6.30	5.60 to 6.30	500 to 1500 nM	6.30 to 7.30	CCC1C(=O)N(C)c2cnc(Nc3ccc(C(=O)NCCOCCOCCOCCOCCN(C)CC=CC(=O)NC4CN(c5nc(Nc6cn(C)nc6OC)c6ncn(C)c6n5)CC4F)cc3OC)nc2N1C1CCCC1 [Compound I-126, 4-[[(7R)-8-cyclopentyl-7-ethyl-5-methyl-6-oxo-7H-pteridin-2-yl]amino]-N-[2-[2-[2-[2-[2-[[(E)-4-[ [(3R,4R)-4-fluoro-1-1[6-1[(3-methoxy-1-methyl-pyrazol-4-yl)amino]-9-methyl-purin-2-yl]pyrrolidin-3-yl]amino]-4-oxo-but-2-enyl]-methyl-amino]ethoxy]ethoxy]ethoxy]ethoxy]ethyl]-3-methoxy-benzamide]	< 500 nM
6.30 to 7.30	6.30 to 7.30	1500 to 5000 nM	> 7.30	C=CC(=O)Nc1cc(Nc2nccc(-c3cn(C)c4ccccc34)n2)c(OC)cc1N(C)CCN(C)CCOCCON(C)C(=O)N1N=C(c2cc(F)ccc2F)S[C@@]1(CCCN)c1ccccc1 [Compound I-127, (2S)-2-(3-aminopropyl)-5-(2,5-difluorophenyl)-N-[2-[2-[2-[5-methoxy-N-methyl-4-[[4-(1-methylindol-3-yl)pyrimidin-2-yl]amino]-2-(prop-2-enoylamino)anilino]ethyl-methyl-amino]ethoxy]ethoxy]-N-methyl-2-phenyl-1,3,4-thiadiazole-3-carboxamide]	500 to 1500 nM
6.30 to 7.30	6.30 to 7.30	500 to 1500 nM	> 7.30	C=CC(=O)N[C@@H]1CN(c2nc(Nc3cn(CCOCCOCCNC(=O)c4ccc(Nc5ncc6c(n5)N(C5CCCC5)[C@H](CC)C(=O)N6C)c(OC)c4)nc3OC)c3ncn(C)c3n2)C[C@H]1F [Compound I-128, 4-[[(7R)-8-cyclopentyl-7-ethyl-5-methyl-6-oxo-7H-pteridin-2-yl]amino]-N-[2[22-[2-[4-[[2-[(3R,4R)-3-fluoro-4-(prop-2-enoylamino)pyrrolidin-1-yl]-9-methyl-purin-6-yl]amino]-3-methoxy-pyrazol-1-yl]ethoxy]ethoxy]ethyl]-3-methoxy-benzamide]	500 to 1500 nM
5.60 to 6.30	5.60 to 6.30	500 to 1500 nM	6.30 to 7.30	CC[C@@H]1C(=O)N(C)c2cnc(Nc3ccc(C(=O)NCCOCCOCCOCCOCCN(C)C/C=C/C(=O)N[C@@H]4CN(c5nc(Nc6cn(C)nc6OC)c6ncn(C)c6n5)C[C@H]4F)cc3OC)nc2N1C1CCCC1 [Compound I-129, 4-[[(7R)-8-cyclopentyl-7-ethyl-5-methyl-6-oxo-7H-pteridin-2-yl]amino]-N-[2-[2-[2-[2-[2-[[(E)-4-[[(3R,4R)-4-fluoro-1-[6-[(3-methoxy-1-methyl-pyrazol-4-yl)amino]-9-methyl-purin-2-yl]pyrrolidin-3-yl]amino]-4-oxo-but-2-enyl]-methyl-amino]ethoxy]ethoxy]ethoxy]ethoxy]ethyl]-3-methoxy-benzamide]	500 to 1500 nM
5.60 to 6.30	5.60 to 6.30	500 to 1500 nM	> 7.30	C=CC(=O)Nc1cc(Nc2nccc(-c3cn(C)c4ccccc34)n2)c(OC)cc1N(C)CCN(C)CCCON(C)C(=O)N1N=C(c2cc(F)ccc2F)S[C@@]1(CCCN)c1ccccc1 [Compound I-130, (2S)-2-(3-aminopropyl)-5-(2,5-difluorophenyl)-N-[3-[2-[5-methoxy-N-methyl-4-[[4-(1-methylindol-3-yl)pyrimidin-2-yl]amino]-2-(prop-2-enoylamino)anilino]ethyl-methyl-amino]propoxy]-N-methyl-2-phenyl-1,3,4-thiadiazole-3-carboxamide]	500 to 1500 nM
5.60 to 6.30	5.60 to 6.30	500 to 1500 nM	> 7.30	C=CC(=O)N[C@@H]1CN(c2nc(Nc3cn(CCCNC(=O)c4ccc(Nc5ncc6c(n5)N(C5CCCC5)[C@H](CC)C(=O)N6C)c(OC)c4)nc3OC)c3ncn(C)c3n2)C[C@H]1F [Compound I-131, 4-[(8-cyclopentyl-7-ethyl-5-methyl-6-oxo-7H-pteridin-2-yl)amino]-N-[3-[4-[[2-[(3R,4R)-3-fluoro-4-(prop-2-enoylamino)pyrrolidin-1-yl]-9-methyl-purin-6-yl]amino]-3-methoxy-pyrazol-1-yl]propyl]-3-methoxy-benzamide]	500 to 1500 nM
5.60 to 6.30	5.60 to 6.30	< 500 nM	> 7.30	C=CC(=O)Nc1cc(Nc2nccc(-c3cn(C)c4ccccc34)n2)c(OC)cc1N(C)CCN(C)CCOCCOCCOCCOCCOCCOCCOc1ccc(CNc2cc(N3CCCC[C@H]3CCO)nc3c(CC)cnn23)cn1 [Compound I-133]	< 500 nM
> 7.30	> 7.30	1500 to 5000 nM	> 7.30	C=CC(=O)N[C@@H]1CN(c2nc(Nc3cn(CCOCCON(C)C(=O)N4N=C(c5cc(F)ccc5F)S[C@@]4(CCCN)c4ccccc4)nc3OC)c3ncn(C)c3n2)C[C@H]1F [Compound I-134, (2S)-2-(3-aminopropyl)-5-(2,5-difluorophenyl)-N—[2-[2-[4-[[2-[(3R,4R)-3-fluoro-4-(prop-2-enoylamino)pyrrolidin-1-yl]-9-methyl-purin-6-yl]amino]-3-methoxy-pyrazol-1-yl]ethoxy]ethoxy]-N-methyl-2-phenyl-1,3,4-thiadiazole-3-carboxamide]	> 5000 nM
> 7.30	> 7.30	> 5000 nM	> 7.30	C=CC(=O)N[C@@H]1CN(c2nc(Nc3cn(CCCON(C)C(=O)N4N=C(c5cc(F)ccc5F)S[C@@]4(CCCN)c4ccccc4)nc3OC)c3ncn(C)c3n2)C[C@H]1F [Compound I-135, (2S)-2-(3-aminopropyl)-5-(2,5-difluorophenyl)-N-[3-[4-[[2-[(3R,4R)-3-fluoro-4-(prop-2-enoylamino)pyrrolidin-1-yl]-9-methyl-purin-6-yl]amino]-3-methoxy-pyrazol-1-yl]propoxy]-N-methyl-2-phenyl-1,3,4-thiadiazole-3-carboxamide]	> 5000 nM
> 7.30	> 7.30	< 500 nM	> 7.30	C=CC(=O)N[C@@H]1CN(c2nc(Nc3cn(CCCN4CCN(CCCNC(=O)c5ccc(Nc6ncc7c(n6)N(C6CCCC6)[C@H](CC)C(=O)N7C)c(OC)c5)CC4)nc3OC)c3ncn(C)c3n2)C[C@H]1F [Compound I-136, 4-[[(7R)-8-cyclopentyl-7-ethyl-5-methyl-6-oxo-7H-pteridin-2-yl]amino]-N-[3-[4-[3-[4-[[2-[(3R,4R)-3-fluoro-4-(prop-2-enoylamino)pyrrolidin-1-yl]-9-methyl-purin-6-yl]amino]-3-methoxy-pyrazol-1-yl]propyl]piperazin-1-yl]propyl]-3-methoxy-benzamide]	500 to 1500 nM

Reference: US20250032623A1, “HETEROBIFUNCTIONAL COMPOUNDS AND THEIR USE IN TREATING DISEASE” (HALDA THERAPEUTICS OPCO, INC., priority 2021, published 2025)
